In publication PMC9605497, “Potential of Epidermal Growth Factor-like Peptide from the Sea Cucumber Stichopus horrens to Increase the Growth of Human Cells: In Silico Molecular Docking Approach” (Marine Drugs, 2022):
“And” between values parts separate entries of the source, which are not always exact repeats. Equal values may be shown once. “Also recorded” adds a separate entry of the source.

Columns and labels:
[1] = system: human melanoma cells (CRL-1872); assay: Cell morphology observation; assay type: cell-based
Protocol: (§1) Human melanoma cells (CRL-1872) were purchased from ATCC, Rocksville, MD, USA. Cells were cultured in a complete growth medium, which consisted of Minimum Essential Medium (MEM) (Gibco, Waltham, MA, USA) supplemented with 10% fetal bovine serum (FBS) (Invitrogen, Waltham, MA, USA) and 1% antibiotic–antimycotic (Invitrogen, Waltham, MA, USA), in a humidified incubator at 37 °C, equilibrated with 5% CO2. Cells were subcultured every two days until reaching confluency in T25 flask (TPP, Trasadingen, Switzerland) before being seeded in designated plates for specific experiment objectives.
(§2) Cells were seeded at 80,000 cells per well in a 24-well plate containing 400 µL of complete growth medium. After 24 h of culture, the medium was removed, washed once with PBS, replaced with serum-free medium and left to culture for another 16 h. The medium was removed and replaced with corresponding treatment medium, each in triplicates; 10 nM and 50 nM of Sh-EGFl-1, 10 nM and 50 nM of rhEGF were used as a positive control and serum-free medium was used as a negative control. Cells were cultured in a single plate to track their growth every 24 h during the four days of experiment. […] A crossed line was made at the bottom of each well to mark the four cell-counting areas that were recorded daily using a microscope digital camera. Cells were counted manually based on the images visualized using ImageJ version 2.0.

[2] = system: human EGFR; assay: Ligand binding assay with biotinylated peptide (NeutrAvidin-HRP/ABTS, 405 nm); conditions: for Relative binding: melanoma cells, 1 h at 37 °C, (OD x nM - OD 0 nM)/OD 0 nM at 405 nm, triplicates; for optimum concentration for binding to EGFR: concentrations tested 10, 50 and 500 nM
Protocol: An experiment was performed to test the ability of Sh-EGFl-1 peptide interaction with human receptor. Ligand binding assay, adapted from King et al. was performed with modifications using human cells. Both Sh-EGFl-1 and rhEGF were first conjugated with N-hydroxysuccinimidobiotin (NHS-biotin) and were added to human cells. Any binding of peptide to EGFR was detected through the reaction of NeutrAvidin conjugated with horseradish peroxidase enzyme and 2,2′-azino-bis-3-ethylbenzothiazoline-6-sulfonic acid (ABTS) as substrate.
A short peptide sequence derived from the protein translation of Contig 498513, was submitted to order. The 4.9 kDa Sh-EGFl-1 peptide (H-NINECFSSPCENQGICQDEIDGYNCVCQPGFTGTHCESSMLNHVI-OH) was synthesized by Mimotopes Pty. Ltd., Australia through a Fmoc solid-phase peptide chemistry method. A master stock concentration of 1 mg/mL was prepared by diluting lyophilized peptide with PBS buffer pH 7.4. Recombinant human EGF (rhEGF) (H-MNSDSECPLSHDGYCLHDGVCMYIEALDKYACNCVVGYIGERCQYRDLKWWELR-OH) was purchased from Thermo Scientific. For the cell proliferation assay and morphology observation experiments, peptides were added fresh into the serum-free growth medium to concentrations of 10 nM and 50 nM. For the binding affinity assay experiment, biotinylation of Sh-EGFl-1 and rhEGF peptides with NHS–biotin (Sigma Aldrich, Burlington, MA, USA) was performed according to the manufacturer’s instructions. The diluted peptides in PBS pH 7.4 were changed into carbonate buffer 0.1 M carbonate buffer pH 9.5 (0.07 M sodium bicarbonate, 0.03 M sodium carbonate) for an optimal biotinylation environment. A 10 X volume of cold acetone was added to the peptides and vortexed for 15 s. The mixture was incubated for 30 min at −20 °C before being centrifuged at 16,100× g for 24 min at 4 °C. The supernatant was discarded and the pellet was air-dried and fully dissolved in carbonate buffer pH 9.5. A total of 20 mg/mL of NHS–biotin was prepared in 1 mL DMSO. A volume of 0.13 µL and 0.1 µL of NHS–biotin was added to the Sh-EGFl-1 and rhEGF peptides, respectively. Both reaction mixtures were vortexed for a while and incubated in a thermoblock with 400 rpm shaking speed for 4 h at room temperature. Any unattached biotin molecules were sieved out using a PD-10 desalting column containing Sephadex G-25 medium (GE Life Sciences, Chicago, IL, USA). PBS buffer pH 7.4 was used as eluent to collect the conjugated peptides out from the column. The concentration of the biotin-conjugated peptides was determined using a NanoDrop spectrophotometer (Thermo Scientific, Waltham, MA, USA) and BCA assay.
Melanoma cells were seeded at 90% confluency in a 96-well plate and cultured in a humidified incubator at 37 °C, equilibrated with 5% CO2 until the next day. When all cells were attached to the surface, the plate was placed on ice for a while to reduce the protein metabolism rate, so the cells were not easily detached. The medium was removed and cells were washed twice using 200 µL of cold PBS buffer. A volume of 100 µL cold formalin was added to the cells to enhance cell attachment to the surface. The plate was placed on ice for the first 5 min, then continued for another 15 min incubation at room temperature. Cells were washed twice using 200 µL of cold PBS. A total of 100 µL of melanoma growth medium (MEM basal medium and 3% FBS) was added and cells were incubated at 37 °C for 30 min. The medium was discarded and replaced with 100 µL of treatment medium (MEM basal medium supplemented with 0.1% BSA, 200 mM HEPES buffer and Sh-EGFl-1 and rhEGF at concentrations of 10, 50 and 500 nM respectively). Cells were incubated at 37 °C for 1 h. The medium was discarded, and cells were washed twice using 200 µL cold PBS and 0.3 M NaCl. A total of 100 µL horseradish peroxidase (HRP) conjugated with NeutrAvidin solution (Thermo Scientific, Waltham, MA, USA) was added with a concentration of 1:10,000 onto cells and incubated at 37 °C for 1 h. […]

[3] = system: human melanoma cells (CRL-1872); assay: Cell proliferation assay (cell counting); assay type: cell-based; conditions: for Average cell number: average over 0, 24, 48, 72 and 96 h; for number of cells vs serum-free medium: four days, triplicates; for duration of temporary increment of cell numbers: cell numbers dropped drastically after the medium change
Protocol: as §1, §2

[4] = 50 nM, recovery from serum starvation

| Substance | cell morphology / attachment [1, 4] | Relative binding ([2]; 10 nM) [%] | Relative binding ([2]; 50 nM) | Relative binding ([2]; 500 nM) | optimum concentration for binding to EGFR [2] [nM] | Average cell numbers ([3]; 0 h, 10 nM) | Average cell numbers ([3]; 0 h, 50 nM) | number of cells vs serum-free medium ([3]; 50 nM) | duration of temporary increment of cell numbers ([3]; 50 nM) [h] | Average cell numbers ([3]; 24 h, 10 nM) | Average cell numbers ([3]; 24 h, 50 nM) | Average cell numbers ([3]; 48 h, 10 nM) | Average cell numbers ([3]; 48 h, 50 nM) | Average cell numbers ([3]; 72 h, 10 nM) | Average cell numbers ([3]; 72 h, 50 nM) | Average cell numbers ([3]; 96 h, 10 nM) | Average cell numbers ([3]; 96 h, 50 nM) | also measured |
| --- | --- | --- | --- | --- | --- | --- | --- | --- | --- | --- | --- | --- | --- | --- | --- | --- | --- | --- |
| H-MNSDSECPLSHDGYCLHDGVCMYIEALDKYACNCVVGYIGERCQYRDLKWWELR-OH (disulfide) [rhEGF, Recombinant human EGF purchased from Thermo Scientific, reference compound] | better recovery as the cells were elongated when they attached to the flask surface | 12 | 4% and 3.62% | 7.57% | 10 | 2115 | 1331 | significantly higher | 48 | 712 | 1643 | 399 | 1741 | 497 | 663 | 339 | 438 | Average cell number ([3]; 10 nM): 810; Average cell number ([3]; 50 nM): 1166 |
| H-NINECFSSPCENQGICQDEIDGYNCVCQPGFTGTHCESSMLNHVI-OH (disulfide) [Sh-EGFl-1, 45 amino acid EGF-like peptide from Stichopus horrens contig 498513, synthesized by Fmoc solid-phase peptide chemistry] | better recovery as the cells were elongated when they attached to the flask surface | 5 | -0.68% | ~10% and 10% | 500 | 1781 | 1382 | significantly higher | 48 | 1413 | 1637 | 1559 | 1753 | 1674 | 1094 | 1816 | 862 | cell morphology / attachment ([1]; 10 nM, recovery from serum starvation and after medium change at 48 h): better recovery as the cells were elongated when they attached to the flask surface; also recorded: most of the cells to lose attachment from the flask except in the presence of 10 nM Sh-EGFl-1; number of cells vs serum-free medium ([3]; 10 nM): not significantly different compared with the serum-free treatment; cell number over time ([3]; 10 nM, until day 4): increased numbers until the end of the experiment on day 4; human cell growth ([3]; lower concentration, cell proliferation assay): significantly improved; cell adherence, survival and proliferation ([3]; melanoma cells): cells are able to maintain their adherent properties, as well as survive and proliferate, albeit rather slowly |
